Columns and labels:
[1] = target: T1, recombinant metallo-β-lactamase (recombinant IMP-1) (Serratia marcescens, UniProt P52699); assay: Inhibition of meropenem degradation by recombinant IMP-1 (Test Example 1); format: biochemical; conditions: 100 μM meropenem, no inhibitor; 1 hour at 37° C.
T1 construct: made in house; host or cells: E. coli BL21(DE3), vector pET29a
Description: Based on the description of NON PATENT LITERATURE 5, a recombinant metallo-β-lactamase (recombinant IMP-1) was prepared. “NG_049172” of Database: RefSeq as the IMP-1 gene was incorporated into vector pET29a (Novagen), and then expressed in E. coli BL21(DE3) (Invitrogen).
Recombinant IMP-1 was dissolved in a 50 mM sodium phosphate buffer (pH 7.6) at a concentration of 0.25 μg/ml. Furthermore, zinc chloride was added to the solution in such a manner that the concentration was 0.1 μM. The resultant in this state was subjected to preincubation at 37° C. for 10 minutes. […] After 1 hour of incubation at 37° C. residual meropenem was quantified by tandem mass spectrometry. Meropenem was quantified by a multiple reaction monitoring method. […]
Reverse phase column: YMC-Triat C18 Plus column (2.1×50 mm); column temperature: 45° C.; mobile phase (2 liquids): mobile phase A (0.1% formic acid aqueous solution), mobile phase B (acetonitrile); gradient: increase from 1% B to 80% B for 10 minutes, keep it at 80% B for 0.5 minutes, and then return it to 1% B over 1 minute. […] Detection: multiple reaction monitoring, parent ion at 384.2, child ion at 68.1; measured in a positive ion mode.
FIG. 4 depicts a graph showing the results of quantifying the peak area of meropenem detected in FIG. 3. The peak of meropenem alone is expressed as 100%.

[2] = system: E. coli clinical isolate expressing IMP-1; assay: Meropenem MIC against E. coli clinical isolate expressing IMP-1 (Test Example 10); format: cell-based; conditions: Escherichia coli, 24 h, read-out: minimum inhibitory concentration
Description: The enhancing effect of DTPA-ADCA on the susceptibility of E. coli clinical isolate expressing IMP-1 to a carbapenem antibacterial agent (meropenem) was evaluated by the following method. The E. coli clinical isolate was cultured overnight with shaking in LB medium. The bacterial solution was diluted to 1/1000 with LB medium, used as a test bacterial solution, and then seeded in a 96-well plate. Meropenem (Wako Pure Chemical Industries, Ltd.) was added to the bacterial solution, thereby performing two-step dilution from a maximum of 10 μg/ml. The bacteria were cultured in an incubator at 37° C. for one day, and growth at that time was measured by turbidity (655 nm). The meropenem concentration at which no bacterial growth had been observed was defined as the minimum inhibitory concentration.
The effect of DTPA-ADCA on the susceptibility of an E. coli clinical isolate to meropenem was evaluated by the following method. The E. coli clinical isolate was cultured overnight with shaking in LB medium. The bacterial solution was diluted to 1/1000 with LB medium, used as the test bacterial solution, and then seeded in a 96-well plate. Meropenem (Wako Pure Chemical Industries, Ltd.) was added to this bacterial solution in the range of 0.1 μg/ml to 0.005 μg/ml. Here, DTPA or DTPA-ADCA was used in combination therewith at a concentration of […], and the effect on bacterial growth was examined. The bacteria were cultured in an incubator at 37° C. for one day, and the growth at that time was measured by turbidity (655 nm).
FIG. 20 depicts the results. Multidrug-resistant E. coli was cultured with compounds having the indicated concentrations and the bacterial load was assessed by turbidity after 24 hours. […] Combined use of DTPA-ADCA (20 μM) reduced the minimum inhibitory concentration of meropenem to […] and enhanced the antibacterial activity by 100 times.

[3] = system: multidrug-resistant Pseudomonas aeruginosa; assay: Growth suppression of multidrug-resistant Pseudomonas aeruginosa clinical isolates (Test Example 7); format: cell-based; conditions: MEPM 2 μg/ml alone, compound 8 20 μM (15.5 μg/ml) alone, Combination = both, 3 wells
Description: The effect of NODA-GA-conjugated doripenem (compound 8) on the susceptibility of a Pseudomonas aeruginosa clinical isolate to a carbapenem antibacterial agent was evaluated by the following method. The Pseudomonas aeruginosa clinical isolate was cultured overnight with shaking in LB medium. The bacterial solution was diluted to 1/1000 with LB medium, used as a test bacterial solution, and then seeded in a 96-well plate. Meropenem (Wako Pure Chemical Industries, Ltd.) was added to this bacterial solution in such a manner that the concentration was 2 μg/ml. The effect of NODA-GA-doripenem alone was also examined. The bacteria were cultured in an incubator at 37° C. for one day, and the growth at that time was measured by turbidity (655 nm).
MEPM in Table 1 is meropenem (2 μg/ml) administered alone; NODA-GA-doripenem is compound 8 (20 μM; 15.5 μg/ml) administered alone; Combination means a combined use of meropenem (2 μg/ml) and compound 8 (20 μM; 15.5 μg/ml).

T1 sequence (P52699 19-246 limits assumed): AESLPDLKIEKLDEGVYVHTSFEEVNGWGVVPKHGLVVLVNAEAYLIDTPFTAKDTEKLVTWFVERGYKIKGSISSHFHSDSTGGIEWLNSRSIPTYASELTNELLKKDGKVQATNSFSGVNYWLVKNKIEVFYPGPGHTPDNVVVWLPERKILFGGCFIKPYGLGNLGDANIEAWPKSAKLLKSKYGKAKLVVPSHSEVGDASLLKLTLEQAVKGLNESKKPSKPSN

## C[C@@H](O)[C@H]1C(=O)N2C(C(=O)O)=C(S[C@@H]3CN[C@H](C(=O)N(C)C)C3)[C@H](C)[C@H]12 [meropenem, reference compound]
[1]
  degradation of meropenem on incubation with IMP-1: completely degraded
[2]
  MIC: 10 µg/mL
[3]; strain 808#1
  suppression of bacterial growth: X (x indicates that the number of wells in which suppression of bacterial growth was confirmed was 1 or less)
[3]; strain 808#2
  suppression of bacterial growth: X (x indicates that the number of wells in which suppression of bacterial growth was confirmed was 1 or less)
[3]; strain MR1
  suppression of bacterial growth: X (x indicates that the number of wells in which suppression of bacterial growth was confirmed was 1 or less)
[3]; strain MR2
  suppression of bacterial growth: X (x indicates that the number of wells in which suppression of bacterial growth was confirmed was 1 or less)
[3]; strain MR3
  suppression of bacterial growth: X (x indicates that the number of wells in which suppression of bacterial growth was confirmed was 1 or less)
[3]; strain MR4
  suppression of bacterial growth: X (x indicates that the number of wells in which suppression of bacterial growth was confirmed was 1 or less)
[3]; strain MR5
  suppression of bacterial growth: X (x indicates that the number of wells in which suppression of bacterial growth was confirmed was 1 or less)
[3]; strain MR6
  suppression of bacterial growth: X (x indicates that the number of wells in which suppression of bacterial growth was confirmed was 1 or less)
[3]; strain MR7
  suppression of bacterial growth: X (x indicates that the number of wells in which suppression of bacterial growth was confirmed was 1 or less)
[3]; strain MR8
  suppression of bacterial growth: X (x indicates that the number of wells in which suppression of bacterial growth was confirmed was 1 or less)
[3]; strain MR9
  suppression of bacterial growth: X (x indicates that the number of wells in which suppression of bacterial growth was confirmed was 1 or less)
[3]; strain MR10
  suppression of bacterial growth: X (x indicates that the number of wells in which suppression of bacterial growth was confirmed was 1 or less)
[3]; strain MR11
  suppression of bacterial growth: X (x indicates that the number of wells in which suppression of bacterial growth was confirmed was 1 or less)
[3]; strain MR12
  suppression of bacterial growth: X (x indicates that the number of wells in which suppression of bacterial growth was confirmed was 1 or less)
[3]; strain MR13
  suppression of bacterial growth: X (x indicates that the number of wells in which suppression of bacterial growth was confirmed was 1 or less)
[3]; strain MR14
  suppression of bacterial growth: X (x indicates that the number of wells in which suppression of bacterial growth was confirmed was 1 or less)
[3]; strain MR15
  suppression of bacterial growth: X (x indicates that the number of wells in which suppression of bacterial growth was confirmed was 1 or less)
[3]; strain MR16
  suppression of bacterial growth: X (x indicates that the number of wells in which suppression of bacterial growth was confirmed was 1 or less)
[3]; strain NM1
  suppression of bacterial growth: X (x indicates that the number of wells in which suppression of bacterial growth was confirmed was 1 or less)
[3]; strain NM2
  suppression of bacterial growth: X (x indicates that the number of wells in which suppression of bacterial growth was confirmed was 1 or less)
[3]; strain NM3
  suppression of bacterial growth: X (x indicates that the number of wells in which suppression of bacterial growth was confirmed was 1 or less)
[3]; strain NM4
  suppression of bacterial growth: X (x indicates that the number of wells in which suppression of bacterial growth was confirmed was 1 or less)
[3]; strain NM5
  suppression of bacterial growth: X (x indicates that the number of wells in which suppression of bacterial growth was confirmed was 1 or less)
